Source: patent publication US11339110B2, “Efficient crystallization process for preparing ultrapure Treprostinil and crystal prepared therefrom” (CHIROGATE INTERNATIONAL INC., priority 2019, dated 2022)

Key:
Type in all cases: physicochemical
[1] = Stability of Treprostinil stored in a glass vial at 40° C. (UPLC tracing of ethyl ester and dimers); details: 40±1° C.; for Treprostinil / Treprostinil dimer-1 (IT201d1) / Treprostinil dimer-2 (IT201d2): no solvent, glass vial, UPLC
Experimental: (§1) Ultra Performance Liquid Chromatography (UPLC) Analysis: The UPLC spectra were collected on a Waters ACQUITY UPLC instrument. The conditions were shown as the following: The sample is diluted to 1 mg/ml by […] (v/v) acetonitrile/H2O. The column is Waters BEH C18, 1.7 μm, 2.1*150 mm. The mobile phase is 60/40 (v/v) buffer/acetonitrile from 0 to 10 min, gradient changes of buffer/acetonitrile from 60/40 to 5/95 (v/v) (curve 6) from 10 to 20 min, 5/95 (v/v) buffer/acetonitrile from 20 to 25 min, gradient changes of buffer/acetonitrile from 5/95 to 0/100 (v/v) (curve 6) from 25 to 30 min, 0/100 (v/v) buffer/acetonitrile from 30 to 35 min. Buffer solution is pH 3.0 aqueous solution adjusted by trifluoroacetic acid. The flow rate is set as 0.42 ml/min. Column temperature is set as 45° C., sample temperature is set as 25° C. Injection is 1.5 μL. Run time is 35 min. UV detector is set as 210 nm.
[…] Treprostinil was placed in a glass vial and stirred at 40±1° C. oil bath and periodically sampled to UPLC measurement for tracing the formation of Treprostinil ethyl ester and Treprostinil dimers.

[2] = Stability of Treprostinil in ethanol (UPLC tracing of ethyl ester and dimers); details: 40±1° C.; for Treprostinil / Treprostinil dimer-1 (IT201d1) / Treprostinil dimer-2 (IT201d2) / Treprostinil ethyl ester (IT201e2): 1.00 g in 5 ml ethanol, UPLC
Experimental: as §1
1.00 g Treprostinil was dissolved in 5 ml ethanol in a glass vial at room temperature to form a homogenous solution, which was stirred at 40±1° C. oil bath and periodically sampled to UPLC measurement for tracing the formation of Treprostinil ethyl ester and Treprostinil dimers.

[3] = Filterability of Treprostinil crystal (microfiltration, pressure change during filtering); details: 100 ml sample solution, 25±1° C., 0.22 μm hydrophilic PVDF membrane
Experimental: The filterability of sample solution is numerical estimated by the pressure changes inside the microfiltration assemblies during filtering. The microfiltration assemblies with 47 mm fritted glass, 0.22 μm hydrophilic PVDF filter membrane, 250 ml bottle, PANCHUM VP-900 dry pump, and an external pressure gauge were settled for tracing the pressure changes during filtration. The usage volume of sample solution for filtering was set as 100 ml and the filtering temperature was set as 25±1° C. for comparing the filterability of samples in a similar experimental condition.
Sample of crystalline Form I of anhydrous Treprostinil in ethyl acetate (containing 3% v/v water) was prepared from Example 5, and the concentration is about 0.05 g/ml. Sample of crystalline Form A of anhydrous Treprostinil in acetonitrile was prepared as disclosed by U.S. Pat. No. 9,278,903 Example 12, and the concentration is about 0.02 g/ml. […] The pressure changes of pure ethyl acetate, pure acetonitrile, crystalline Form I of anhydrous Treprostinil in ethyl acetate (containing 3% v/v water), crystalline Form A of anhydrous Treprostinil in acetonitrile, and monohydrated Treprostinil crystal in ethanol/water during filtration were measured and the results am shown in FIG. 10.

CCCCC[C@H](O)CC[C@@H]1[C@H]2Cc3cccc(OCC(=O)O)c3C[C@H]2C[C@H]1O [Treprostinil]
formation rate of Treprostinil dimers ([1]; Treprostinil stored without solvent): about 0.01 % per hour | Treprostinil ([1]; time 0 h): 99.90% | Treprostinil dimer-1 (IT201d1) ([1]; time 0 h): 0.04% | Treprostinil dimer-2 (IT201d2) ([1]; time 0 h): 0.06% | Treprostinil ([1]; time 2 h): 99.89% | Treprostinil dimer-1 (IT201d1) ([1]; time 2 h): 0.06% | Treprostinil dimer-2 (IT201d2) ([1]; time 2 h): 0.05% | Treprostinil ([1]; time 4 h): 99.88% | Treprostinil dimer-1 (IT201d1) ([1]; time 4 h): 0.06% | Treprostinil dimer-2 (IT201d2) ([1]; time 4 h): 0.06% | Treprostinil ([1]; time 6 h): 99.84% | Treprostinil dimer-1 (IT201d1) ([1]; time 6 h): 0.07% | Treprostinil dimer-2 (IT201d2) ([1]; time 6 h): 0.08% | Treprostinil ([1]; time 8 h): 99.83% | Treprostinil dimer-1 (IT201d1) ([1]; time 8 h): 0.08% | Treprostinil dimer-2 (IT201d2) ([1]; time 8 h): 0.09% | Treprostinil ([1]; time 10 h): 99.79% | Treprostinil dimer-1 (IT201d1) ([1]; time 10 h): 0.09% | Treprostinil dimer-2 (IT201d2) ([1]; time 10 h): 0.12% | Treprostinil ([1]; time 12 h): 99.77% | Treprostinil dimer-1 (IT201d1) ([1]; time 12 h): 0.10% | Treprostinil dimer-2 (IT201d2) ([1]; time 12 h): 0.13% | Treprostinil ([2]; time 0 h): 99.88% | Treprostinil dimer-1 (IT201d1) ([2]; time 0 h): 0.04% | Treprostinil dimer-2 (IT201d2) ([2]; time 0 h): 0.06% | Treprostinil ethyl ester (IT201e2) ([2]; time 0 h): 0.02% | Treprostinil ([2]; time 2 h): 99.50% | Treprostinil dimer-1 (IT201d1) ([2]; time 2 h): 0.04% | Treprostinil dimer-2 (IT201d2) ([2]; time 2 h): 0.07% | Treprostinil ethyl ester (IT201e2) ([2]; time 2 h): 0.39% | Treprostinil ([2]; time 4 h): 99.07% | Treprostinil dimer-1 (IT201d1) ([2]; time 4 h): 0.06% | Treprostinil dimer-2 (IT201d2) ([2]; time 4 h): 0.06% | Treprostinil ethyl ester (IT201e2) ([2]; time 4 h): 0.81% | Treprostinil ([2]; time 6 h): 98.68% | Treprostinil dimer-1 (IT201d1) ([2]; time 6 h): 0.07% | Treprostinil dimer-2 (IT201d2) ([2]; time 6 h): 0.07% | Treprostinil ethyl ester (IT201e2) ([2]; time 6 h): 1.18% | Treprostinil ([2]; time 8 h): 98.15% | Treprostinil dimer-1 (IT201d1) ([2]; time 8 h): 0.10% | Treprostinil dimer-2 (IT201d2) ([2]; time 8 h): 0.11% | Treprostinil ethyl ester (IT201e2) ([2]; time 8 h): 1.64% | Treprostinil ([2]; time 10 h): 97.73% | Treprostinil dimer-1 (IT201d1) ([2]; time 10 h): 0.12% | Treprostinil dimer-2 (IT201d2) ([2]; time 10 h): 0.11% | Treprostinil ethyl ester (IT201e2) ([2]; time 10 h): 2.04% | Treprostinil ([2]; time 12 h): 97.41% | Treprostinil dimer-1 (IT201d1) ([2]; time 12 h): 0.13% | Treprostinil dimer-2 (IT201d2) ([2]; time 12 h): 0.09% | Treprostinil ethyl ester (IT201e2) ([2]; time 12 h): 2.37% | formation rate of Treprostinil dimers ([2]; dissolved in ethanol): about 0.01 % per hour | formation rate of Treprostinil ethyl ester ([2]; dissolved in ethanol): about 0.2 % per hour | finish time of filtration ([3]; 47 mm fritted glass): about 92 seconds | solution filtered ([3]; until about 180 seconds): ~80%
